Laboratory results: patent US20060241182A1, “Antibiotic, functional cosmetic and functional food containing levulinic acid and their derivatives” (priority 2001, published 2006)
Values after ≈ are worked out from the molar mass of the structure shown. Like-named read-outs stand apart in the source and are kept apart here.

Legend:
Helicobacter pylori = assay: microbe, parasite or virus in culture
Method: (§1) Wherein, all the bacteria were cultured for 12˜18 hours.
(§2) MIC of levulinic acid was measured on 96 well plates. Media and levulinic acid (200 mg/ml) mixed and diluted 1:2 fold serially. Dilutants were added on 96 well plate. Equal amount of bacterial suspension (10^6 CFU/ml) was added in each well. Wherein the inoculated bacteria were cultured at 30° C. for 12˜18 hours. The proliferations of bacteria on testing medium were measured to determine MIC against the test bacteria.
(§3) Also, in case of anaerobic bacteria, according to the same method as above, cap tubes were used in place of 96 well plates.

Escherichia coli O157 = assay: MIC of levulinic acid, serial dilution on 96 well plates; type: cell-based
Method: (§4) Also, Bacillus cereus KCTC 1014, Bacillus subtillis IFO 3007, Escherichia coli O 157 and Escherichia coli 1039 were cultured in complex media (0.8% of nutrient broth, 1% of yeast extract, 2% of NaCl and 0.02% of dextrose) at 37° C. with shaking.
as §1, §2

[1] = tested on: mouse fibroblast NIH3T3 cells; conditions: 52 hours
Method: Cytotoxicity test of levulinic acid was accomplished by using mouse fibroblast NIH3T3 cells as testing cells. The cells were cultured in medium added 16.3 mg/ml, 12.2 mg/ml, 9.8 mg/ml and 4.9 mg/ml of levulinic acid for 52 hours, respectively.

[2] = tested on: Enterococcus faecium KCTC 3095; assay: microbe, parasite or virus in culture; conditions: KCTC3095
Method: (§5) Lactococcus garvieae YT-3, Edwardsiella tarda GY-01, Vibrio anguillarum YT-85805, Enterococcus faecium KCTC 3095 and tooth-decaying bacteria of Streptococcus spp. were cultured in Brain heart infusion media at 37° C. with shaking. Anaerobic tooth-decaying bacteria, Streptococcus spp., were cultured with standing in gas generating kit. Anaerobic Propionibacterium acnes KCTC 3326, was cultured in GAM media with standing in gas generating kit.
as §1, §2

[3] = tested on: Vibrio anguillarum YT-85805; assay: microbe, parasite or virus in culture; conditions: YT85805
Method: as §5, §1, §2

Edwardsiella tarda GY-01 = assay: microbe, parasite or virus in culture; conditions: GY01
Method: as §5, §1, §2

[4] = tested on: Lactococcus garvieae YT-3; assay: microbe, parasite or virus in culture; conditions: YT3
Method: as §5, §1, §2

tooth-decaying bacteria = conditions: summary of Table 3
Method: as §5, §1, §2, §3

[5] = tested on: Streptococcus salivarius ATCC 13419; assay: microbe, parasite or virus in culture; conditions: ATCC13419
Method: as §5, §1, §2, §3

[6] = tested on: Streptococcus mutans KCTC 3065; assay: microbe, parasite or virus in culture; conditions: KCTC3065
Method: as §5, §1, §2, §3

[7] = tested on: Streptococcus doweni Mfe28; assay: microbe, parasite or virus in culture
Method: as §5, §1, §2, §3

[8] = tested on: Streptococcus mutans OMZ-176; assay: microbe, parasite or virus in culture; conditions: OMZ176
Method: as §5, §1, §2, §3

[9] = tested on: Propionibacterium acnes KCTC 3326; assay: microbe, parasite or virus in culture; conditions: Cutibacterium acnes, KCTC3326
Method: as §5, §1, §2, §3

[10] = tested on: Streptococcus mutans GS-5; assay: microbe, parasite or virus in culture; conditions: GS5
Method: as §5, §1, §2, §3

[11] = tested on: Streptococcus mutans OMZ-175; assay: microbe, parasite or virus in culture; conditions: OMZ175
Method: as §5, §1, §2, §3

[12] = tested on: Streptococcus mutans Ingbritt; assay: microbe, parasite or virus in culture
Method: as §5, §1, §2, §3

[13] = tested on: Streptococcus mutans HS-6; assay: microbe, parasite or virus in culture; conditions: HS6
Method: as §5, §1, §2, §3

[14] = tested on: Streptococcus sobrinus coykendall 6715-1 ATCC 27352; assay: microbe, parasite or virus in culture; conditions: ATCC27352
Method: as §5, §1, §2, §3

Streptococcus mutans BHT = assay: microbe, parasite or virus in culture
Method: as §5, §1, §2, §3

[15] = tested on: Streptococcus mutans LM-7; assay: microbe, parasite or virus in culture; conditions: LM7
Method: as §5, §1, §2, §3

[16] = tested on: vancomycin-resistant Enterococcus; assay: microbe, parasite or virus in culture
Method: (§6) Staphylococcus aureus KCTC 1621, Pseudomonas aeroginosa KCTC 1636, methicillin-resistant Staphylococcus aureus, Vancomycin resistant Enterococcus and R-Pseudomonas aeroginosa were cultured in tryptic soy broth at 37° C. with shaking.
as §1, §2

[17] = tested on: Resistant Pseudomonas aeruginosa; assay: microbe, parasite or virus in culture
Method: as §6, §1, §2

[18] = tested on: Staphylococcus aureus KCTC 1621; assay: microbe, parasite or virus in culture; conditions: KCTC1621
Method: as §6, §1, §2

[19] = tested on: Pseudomonas aeruginosa KCTC 1636; assay: microbe, parasite or virus in culture; conditions: KCTC1636
Method: as §6, §1, §2

[20] = tested on: methicillin-resistant Staphylococcus aureus; assay: microbe, parasite or virus in culture
Method: as §6, §1, §2

[21] = tested on: pathogen infecting finny tribe and poultry; conditions: summary of Table 2
Method: as §5, §1, §2

drug-resistant bacteria = conditions: summary of Table 1
Method: as §6, §5, §1, §2

[22] = tested on: general bacteria and yeast; conditions: summary of Table 4
Method: as §4
(§7) Saccharomyces cerevisiae breneri hefe rasse VIII and Hansenula anomala IFO 0149 were cultured in complex medium (0.3% of yeast extract, 0.3% of nutrient broth, 0.5% of peptone and 0.1% of glucose) at 25° C. with shaking.
as §1, §2

[23] = tested on: Bacillus subtilis IF0 3007; assay: microbe, parasite or virus in culture; conditions: IF03007
Method: as §4, §1, §2

[24] = tested on: Bacillus cereus KCTC 1014; assay: microbe, parasite or virus in culture; conditions: KCTC1014
Method: as §4, §1, §2

[25] = tested on: Escherichia coli KCTC 1039; assay: microbe, parasite or virus in culture; conditions: KCTC1039
Method: as §4, §1, §2

[26] = tested on: Salmonella typhimurium KCTC 1925; assay: microbe, parasite or virus in culture; conditions: Salmonella enterica
Method: as §1, §2

[27] = tested on: Candida albicans KCTC 7753; assay: microbe, parasite or virus in culture; conditions: KCTC7753
Method: as §1, §2

[28] = tested on: Hansenula anomala IFO 0149; assay: microbe, parasite or virus in culture; conditions: IFO0149
Method: as §7, §1, §2

[29] = tested on: Saccharomyces cerevisiae breneri heferasse VII; assay: microbe, parasite or virus in culture
Method: as §7, §1, §2

With `CC(=O)CCC(=O)O` [levulinic acid] the MIC (Helicobacter pylori) was 0.78 µg/mL (≈ 0.00672 mM), the MIC (Escherichia coli O157) was 2000 µg/mL and the “Cytotoxicity: death / growth of the cells” value (“Cytotoxicity: death / growth” for short) ([1]; medium added 9.8 mg/ml levulinic acid) was “not died, but their growth were inhibited”. For the same compound, the “Cytotoxicity: growth of the cells versus control cells” value ([1]; medium containing 4.9 mg/ml levulinic acid) was “no difference from one of control cells”, the “Cytotoxicity: death / growth” value ([1]; medium containing 12.2 mg/ml levulinic acid) was “died, or their growth were inhibited” and the “Cytotoxicity: death / growth” value ([1]; medium containing 16.3 mg/ml levulinic acid) was “died, or their growth were inhibited”. For the same compound, the MIC [2] was 4500 µg/mL (≈ 38.8 mM), the MIC [3] was 3000 µg/mL (≈ 25.8 mM) and the MIC (Edwardsiella tarda GY-01) was 3500 µg/mL (≈ 30.1 mM). The MIC [4] was 3500 µg/mL (≈ 30.1 mM), the “MIC against tooth-decaying bacteria (range over Table 3)” value (tooth-decaying bacteria) was 4˜5 mg/ml and the MIC [5] was 4000 µg/mL (≈ 34.4 mM). It also gave an MIC [6] of 4000 µg/mL (≈ 34.4 mM), an MIC [7] of 4000 µg/mL (≈ 34.4 mM) and an MIC [8] of 5000 µg/mL (≈ 43.1 mM). For the same compound, the MIC [9] was 6000 µg/mL (≈ 51.7 mM), the MIC [10] was 5000 µg/mL (≈ 43.1 mM) and the MIC [11] was 4000 µg/mL (≈ 34.4 mM). The MIC [12] was 4000 µg/mL (≈ 34.4 mM), the MIC [13] was 4000 µg/mL (≈ 34.4 mM) and the MIC [14] was 4000 µg/mL (≈ 34.4 mM). For the same compound, the MIC (Streptococcus mutans BHT) was 4000 µg/mL (≈ 34.4 mM), the MIC [15] was 4000 µg/mL (≈ 34.4 mM) and the MIC [16] was 3000 µg/mL (≈ 25.8 mM). For the same compound, the MIC [17] was 2500 µg/mL (≈ 21.5 mM), the MIC [18] was 3500 µg/mL (≈ 30.1 mM) and the MIC [19] was 1500 µg/mL (≈ 12.9 mM). The MIC [20] was 4000 µg/mL (≈ 34.4 mM), the “MIC against pathogen infecting finny tribe and poultry (range over Table 2)” value [21] was 0.37˜3.5 mg/ml and the “MIC against drug-resistant bacteria (range over Table 1)” value (drug-resistant bacteria) was 1.5˜4.5 mg/ml. For the same compound, the “MIC against general bacteria and yeast (range over Table 4)” value [22] was 1.5˜6 mg/ml, the MIC [23] was 1500 µg/mL (≈ 12.9 mM) and the MIC [24] was 1500 µg/mL (≈ 12.9 mM). For the same compound, the MIC [25] was 2000 µg/mL (≈ 17.2 mM), the MIC [26] was 370 µg/mL (≈ 3.19 mM) and the MIC [27] was 6000 µg/mL (≈ 51.7 mM). It also gave an MIC [28] of 3500 µg/mL (≈ 30.1 mM) and an MIC [29] of 2500 µg/mL (≈ 21.5 mM).
